Experiments:
[1] = tested on: microglial inflammatory marker Iba1 in the hippocampus; assay: LPS-induced neuroinflammation in mice, Iba1 immunohistochemistry of the hippocampus; assay type: in vivo, mouse; conditions: C57BL/6 mice, Day 28, LPS+semaglutide 30 nmol/kg s.c. once per day; mean, SEM 0.49%; LPS+vehicle 12.17%; p<0.01
Description: LPS-induced neuroinflammation is used as a non-genetic model of Alzheimer's disease in rodents. LPS is an endotoxin from gram-negative bacteria that provides a persistent inflammatory stimulus activating brain immune cells (neuroimmune cells). Microglia are a brain immune cell type activated by LPS, and the degree of neuroinflammation can be assessed by the area of microglia in brain tissue as measured by the microglia-specific marker ionized calcium binding adaptor molecule 1 (Iba1).
Here, LPS-induced neuroinflammation in mice was used to assess the impact of semaglutide on attenuating brain inflammation in the hippocampus, a brain region involved in memory and learning which is deteriorated in Alzheimer's Disease.
The experiment was carried out using C57BL/6 mice at 8-10 weeks of age. […]
Immediately after termination, whole brains were collected for immunohistochemical (IHC) analyses of neuroinflammation markers. […] The primary antibody was detected using a linker secondary antibody followed by amplification using a polymeric HRP-linker antibody conjugate. […]
Quantitative assessment of Iba1 signal was performed to measure the area of microglia in the hippocampus of the tissue section. […] The quantitative estimates of IHC-positive staining were calculated as an area fraction (AF) of the total tissue area where: […]

SAMP8 mice [2] = assay: Y-maze test (short-term memory) in SAMP8 mice; assay type: in vivo, mouse; conditions: SAMP8 mice at 16 weeks of age; 30 nmol/kg s.c. once a day; mean, SEM 1.6%; vehicle 42.8%; p<0.0001
Description: Here, SAMP8 mice were utilized to characterize the impact of semaglutide treatment on memory deficits and cognitive decline. Two behavioural tests commonly used to assess cognitive deficits in rodents were employed to assay effects on short-term memory (Y-maze test) and long-term memory (step-through passive avoidance test). The Y-maze is test of short-term memory, assessing spatial working memory and exploratory behaviour by measuring spontaneous alternations, which is the frequency of entering a new arm of the maze rather than returning to one that was previously visited (described in methods). The step-through passive avoidance test measures associative long-term memory by assessing the learning of an association of an aversive stimulus to a particular context (described in methods). SAMP8 mice have measurable deficits in both tests as they age. […]
Testing in the Y-maze was performed at 8 weeks of age and 16 weeks of age, at approximately 15 and 71 days following treatment initiation respectively. […] The series of arm entries including possible returns into the same arm was monitored and alternation was defined as entries into all three arms on consecutive occasions. The number of maximum alternations was therefore the total number of arm entries minus two and the percentage of alternation was be calculated as (actual alternations/maximum alternations)×100.

[3] = tested on: Patients with type 2 diabetes at high risk for or with established cardiovascular disease; assay: Dementia in pooled double-blind RCTs (LEADER, SUSTAIN-6, PIONEER 6), GLP-1 receptor agonist versus placebo; assay type: in vivo, human; conditions: each RCT, active arm vs. placebo; for Dementia SMQ GLP-1 Receptor Agonists no. of events: median follow-up 3.8 years (LEADER), 2.1 years (SUSTAIN-6), 1.3 years (PIONEER 6)
Experimental: Exposure to GLP-1 receptor agonist and subsequent diagnosis of dementia was assessed in data sources with long term treatment exposure including three pooled double-blind randomized controlled trials (RCTs) and a nationwide cohort of patients with diabetes. This was done with the aim of investigating whether use of GLP-1 receptor agonists reduces the onset of dementia in patients with diabetes.
A triangulation approach integrating study designs and data sources with different key sources of potential bias was employed to obtain a more reliable answer. First, data was pooled from three large RCTs with GLP-1 receptor agonists; liraglutide (LEADER; 9,340 patients), subcutaneous semaglutide (SUSTAIN-6; 3,297 patients), and oral semaglutide (PIONEER 6; 3,183 patients). All three trials were multicenter, double-blind, placebo-controlled cardiovascular outcomes trials. Patients with type 2 diabetes at high risk for or with established cardiovascular disease were randomly assigned in a 1:1 ratio, to receive placebo or liraglutide (LEADER), or semaglutide (SUSTAIN-6; PIONEER 6) in addition to standard of care. In these trials, the treatment for diabetes (excluding GLP-1 receptor agonists, dipeptidyl peptidase-4 inhibitors (DPP4 inhibitors), and pramlintide) was adjusted or added in both arms, at the investigator's discretion, as previously described. The formulation tested in LEADER was an aqueous composition comprising liraglutide, disodium phosphate dihydrate, propylene glycol, and phenol at pH 8.15. The formulation tested in SUSTAIN-6 was an aqueous composition comprising semaglutide, disodium phosphate dihydrate, propylene glycol, and phenol at pH 7.4. The formulation tested in PIONEER was a tablet comprising semaglutide and SNAC. […]
For the pooled RCTs, an intention-to-treat analysis was performed using Cox regression with treatment assignment as the only explanatory variable to determine the hazard ratio for developing dementia with GLP-1 receptor agonists versus placebo. […] The incidence of dementia with death as competing risk was calculated using the Aalen-Johansen estimator.

SAMP8 mice [4] = assay: Step-through passive avoidance test (long-term memory) in SAMP8 mice; assay type: in vivo, mouse; conditions: SAMP8 mice at 18 weeks of age, retention test, 30 nmol/kg s.c. once a day, mean
Description: Here, SAMP8 mice were utilized to characterize the impact of semaglutide treatment on memory deficits and cognitive decline. Two behavioural tests commonly used to assess cognitive deficits in rodents were employed to assay effects on short-term memory (Y-maze test) and long-term memory (step-through passive avoidance test). The Y-maze is test of short-term memory, assessing spatial working memory and exploratory behaviour by measuring spontaneous alternations, which is the frequency of entering a new arm of the maze rather than returning to one that was previously visited (described in methods). The step-through passive avoidance test measures associative long-term memory by assessing the learning of an association of an aversive stimulus to a particular context (described in methods). SAMP8 mice have measurable deficits in both tests as they age.
The experiment was carried out using SAMP8 mice with the following treatment groups: SAMP8 vehicle treated (n=24) and SAMP8 semaglutide (30 nmol/kg) treated (n=11). […]
The step through passive avoidance performance was performed at 18 weeks of age. […] The step-through latency was recorded up to 300 s, defined as the time it took the mouse to enter the darkened compartment during the retention test. Escape latency was as recorded, defined as the time in the retention test to escape the darkened chamber following the application of a footshock.

N-epsilon26-[2-(2-{2-[2-(2-{2-[(S)-4-Carboxy-4-(17-carboxyheptadecanoylamino)butyrylamino] ethoxy}ethoxy)acetylamino]ethoxy} ethoxy)acetyl][Aib8,Arg34]GLP-1-(7-37) [semaglutide]
hippocampal Iba1 area (area fraction) [1]: 8.53%
percentage alternation behaviour in the Y-maze (SAMP8 mice [2]): 79.1%
Dementia SMQ GLP-1 Receptor Agonists no. of events ([3]; listed as Semaglutide (oral)): 0
Dementia SMQ GLP-1 Receptor Agonists no. of events ([3]; listed as Semaglutide (s.c)): 3
Dementia SMQ GLP-1 Receptor Agonists rate ([3]; unit not printed in table (b13 gives pooled rates per 1000 patient-years)): 0.88
escape latency (SAMP8 mice [4]; SEM 3.0 seconds, vehicle 88.8 seconds, p=0.01): 19.0 s
step-through latency (SAMP8 mice [4]; SEM 14.5 seconds, vehicle 109.8 seconds, p<0.0001): 260.5 s
